Results: ChEMBL document CHEMBL1201862, “PubChem BioAssay data set” (2004)
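All cell lines were grown in 96-well plates and treated with compound for 48 hours. At the GI50, growth is halved.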 Active and inactive are the calls of the source. No stated cut-off is given here; in the data, active = GI50 up to about 1.1 µM and inactive = higher.

Assays:
Assay in all cases: inhibition of tumour cell growth, NCI panel, 48 h
EKVX = test system: EKVX
Hs-578T = test system: Hs-578T
UACC-62 = test system: UACC-62
T47D = test system: T47D
HL-60 = test system: HL-60
PC-3 = test system: PC-3
CCRF-CEM = test system: CCRF-CEM
MDA-N = test system: MDA-N
SF-268 = test system: SF-268
COLO 205 = test system: COLO 205
HT-29 = test system: HT-29
A498 = test system: A498
SF-539 = test system: SF-539
MDA-MB-231 = test system: MDA-MB-231
HCT-15 = test system: HCT-15
IGROV-1 = test system: IGROV-1
HOP-62 = test system: HOP-62
HOP-92 = test system: HOP-92
A549 = test system: A549
TK-10 = test system: TK-10
NCI-H23 = test system: NCI-H23
NCI-H226 = test system: NCI-H226
RPMI-8226 = test system: RPMI-8226
SF-295 = test system: SF-295
K562 = test system: K562
DU-145 = test system: DU-145
SNB-75 = test system: SNB-75
MDA-MB-435 = test system: MDA-MB-435
SW-620 = test system: SW-620
UO-31 = test system: UO-31
SK-MEL-28 = test system: SK-MEL-28
M14 = test system: M14
U-251 = test system: U-251
SN12C = test system: SN12C
Malme-3M = test system: Malme-3M
NCI/ADR-RES = test system: NCI/ADR-RES
HCT-116 = test system: HCT-116
OVCAR-5 = test system: OVCAR-5
OVCAR-8 = test system: OVCAR-8
LOX IMVI = test system: LOX IMVI
SK-OV-3 = test system: SK-OV-3
OVCAR-4 = test system: OVCAR-4
NCI-H522 = test system: NCI-H522
UACC-257 = test system: UACC-257
KM12 = test system: KM12
SR = test system: SR
BT-549 = test system: BT-549
MOLT-4 = test system: MOLT-4
SK-MEL-5 = test system: SK-MEL-5
786-0 = test system: 786-0
OVCAR-3 = test system: OVCAR-3
MCF7 = test system: MCF7
CAKI-1 = test system: CAKI-1
SK-MEL-2 = test system: SK-MEL-2
ACHN = test system: ACHN
HCC 2998 = test system: HCC 2998
SNB-19 = test system: SNB-19
RXF 393 = test system: RXF 393
NCI-H460 = test system: NCI-H460

Measured: GI50

O=C1c2ccccc2-c2c1c1ccccc1c(=O)n2Cc1ccccc1
inactive: EKVX > 100 µM | Hs-578T 43.5 µM | UACC-62 46.6 µM | T47D > 100 µM | HL-60 > 100 µM | PC-3 > 100 µM | CCRF-CEM > 100 µM | MDA-N > 100 µM | SF-268 58.5 µM | COLO 205 > 100 µM | HT-29 > 100 µM | A498 49.1 µM | SF-539 57.1 µM | MDA-MB-231 50.1 µM | IGROV-1 64.4 µM | HOP-62 38.6 µM | HOP-92 63.1 µM | A549 > 100 µM | TK-10 40.7 µM | NCI-H23 68.2 µM | NCI-H226 > 100 µM | RPMI-8226 > 100 µM | SF-295 93.1 µM | K562 > 10 µM | DU-145 81.5 µM | SNB-75 56.4 µM | MDA-MB-435 > 100 µM | SW-620 > 100 µM | UO-31 > 100 µM | SK-MEL-28 > 100 µM | M14 > 100 µM | U-251 93.8 µM | SN12C > 100 µM | Malme-3M > 100 µM | NCI/ADR-RES > 100 µM | HCT-116 > 100 µM | OVCAR-5 > 100 µM | OVCAR-8 > 100 µM | LOX IMVI > 100 µM | SK-OV-3 > 100 µM | OVCAR-4 14.5 µM | NCI-H522 54.3 µM | UACC-257 79.4 µM | KM12 > 100 µM | SR > 100 µM | BT-549 62.7 µM | MOLT-4 > 100 µM | SK-MEL-5 73.6 µM | 786-0 28.6 µM | OVCAR-3 > 100 µM | MCF7 > 100 µM | CAKI-1 56.8 µM | SK-MEL-2 > 100 µM
> 100 µM: HCT-15

O=C1/C(=C/c2cccc([N+](=O)[O-])c2)N=C(c2ccccc2)N1c1ccc2c(c1)Sc1cc(N3C(=O)/C(=C/c4cccc([N+](=O)[O-])c4)N=C3c3ccccc3)ccc1N2
inactive: EKVX 25.4 µM | Hs-578T 30.2 µM | UACC-62 17 µM | T47D 25.4 µM | HL-60 21.6 µM | PC-3 22 µM | ACHN 30.9 µM | CCRF-CEM 16.9 µM | MDA-N 19.3 µM | SF-268 20.1 µM | COLO 205 40.9 µM | HT-29 91.8 µM | A498 23.6 µM | MDA-MB-231 29.1 µM | IGROV-1 20.1 µM | HOP-62 20 µM | HOP-92 28.1 µM | A549 53 µM | TK-10 19.6 µM | NCI-H23 30.8 µM | HCC 2998 > 100 µM | RPMI-8226 26.7 µM | SF-295 14 µM | K562 27.3 µM | DU-145 36.7 µM | SNB-75 16.7 µM | MDA-MB-435 18.7 µM | SW-620 31.2 µM | UO-31 53.3 µM | SK-MEL-28 47.9 µM | M14 32.9 µM | SNB-19 21.2 µM | RXF 393 21.6 µM | U-251 24.7 µM | Malme-3M 21.4 µM | NCI/ADR-RES 34.1 µM | HCT-116 42.8 µM | OVCAR-5 18.5 µM | OVCAR-8 29.2 µM | LOX IMVI 27 µM | SK-OV-3 16.4 µM | OVCAR-4 18.7 µM | NCI-H522 19.1 µM | UACC-257 18.4 µM | KM12 > 100 µM | BT-549 23 µM | NCI-H460 41.9 µM | MOLT-4 36.9 µM | SK-MEL-5 17.3 µM | 786-0 21 µM | OVCAR-3 12.6 µM | MCF7 19.2 µM | CAKI-1 22.4 µM | SK-MEL-2 20 µM
> 100 µM: HCT-15

COC(=O)c1cc(O)c(O)c(O)c1-c1c(O)c(O)c(O)c(SC[C@H](NC(=O)OCc2ccccc2)C(=O)OCc2ccccc2)c1C(=O)OC
27.5 µM: HCT-15
inactive: EKVX 19.7 µM | Hs-578T 29.6 µM | UACC-62 22.3 µM | T47D 32.4 µM | HL-60 15.1 µM | PC-3 22.6 µM | ACHN 22.5 µM | CCRF-CEM 16.3 µM | MDA-N 19.8 µM | SF-268 25.9 µM | COLO 205 22.6 µM | HT-29 28.3 µM | A498 31.5 µM | SF-539 28.4 µM | MDA-MB-231 16.7 µM | IGROV-1 28.8 µM | HOP-62 35.1 µM | HOP-92 26.2 µM | A549 17.9 µM | TK-10 67.9 µM | NCI-H23 22 µM | NCI-H226 21.2 µM | HCC 2998 24.1 µM | RPMI-8226 21.8 µM | SF-295 35.3 µM | K562 19.6 µM | DU-145 39.2 µM | SNB-75 20.3 µM | MDA-MB-435 11.1 µM | SW-620 23.8 µM | SK-MEL-28 30.1 µM | M14 17.9 µM | SNB-19 30.8 µM | RXF 393 20.2 µM | U-251 16.4 µM | SN12C 19.4 µM | Malme-3M 78.5 µM | NCI/ADR-RES 35 µM | HCT-116 17.3 µM | OVCAR-5 33.9 µM | OVCAR-8 21.2 µM | LOX IMVI 17.9 µM | SK-OV-3 41.9 µM | OVCAR-4 26.5 µM | NCI-H522 22.3 µM | UACC-257 32.8 µM | KM12 31.9 µM | BT-549 34.7 µM | NCI-H460 29.2 µM | MOLT-4 17.6 µM | 786-0 18.6 µM | OVCAR-3 34 µM | MCF7 18 µM | CAKI-1 18.7 µM | SK-MEL-2 19.9 µM

COc1ccc(/C=C(\C#N)c2nc3ccccc3c(=O)[nH]2)cc1
54.5 µM: HCT-15
inactive: EKVX 59.6 µM | Hs-578T 15.1 µM | UACC-62 18.4 µM | T47D 20.6 µM | HL-60 > 100 µM | PC-3 38.7 µM | ACHN 17.1 µM | CCRF-CEM > 100 µM | MDA-N > 100 µM | SF-268 13.7 µM | COLO 205 73.6 µM | HT-29 > 100 µM | SF-539 12.6 µM | MDA-MB-231 4.84 µM | IGROV-1 30.3 µM | HOP-62 10.5 µM | HOP-92 12.1 µM | A549 45.9 µM | TK-10 23.3 µM | NCI-H226 27 µM | HCC 2998 49.5 µM | RPMI-8226 > 100 µM | SF-295 20.5 µM | K562 > 100 µM | DU-145 23.1 µM | SNB-75 23.9 µM | MDA-MB-435 > 100 µM | SW-620 50.4 µM | UO-31 26.5 µM | SK-MEL-28 > 100 µM | M14 30 µM | SNB-19 12.9 µM | RXF 393 15.5 µM | U-251 9.42 µM | SN12C 33.6 µM | Malme-3M > 100 µM | NCI/ADR-RES 20.3 µM | HCT-116 5.22 µM | OVCAR-5 > 100 µM | OVCAR-8 10.6 µM | LOX IMVI 43.4 µM | SK-OV-3 11.3 µM | OVCAR-4 20.3 µM | NCI-H522 10.6 µM | UACC-257 68.7 µM | KM12 51.5 µM | SR 39.4 µM | BT-549 15.5 µM | NCI-H460 16.6 µM | MOLT-4 > 100 µM | SK-MEL-5 19.5 µM | 786-0 13.9 µM | MCF7 34.4 µM | CAKI-1 27.8 µM | SK-MEL-2 27.3 µM

ON=C1CCCCC(=NO)CCCC1
inactive: Hs-578T > 100 µM | UACC-62 > 100 µM | T47D > 100 µM | PC-3 > 100 µM | ACHN > 100 µM | MDA-N > 100 µM | SF-268 > 100 µM | COLO 205 > 100 µM | HT-29 > 100 µM | A498 > 100 µM | SF-539 > 100 µM | MDA-MB-231 > 100 µM | HOP-92 > 100 µM | A549 > 100 µM | TK-10 > 100 µM | NCI-H23 > 100 µM | NCI-H226 > 100 µM | HCC 2998 > 100 µM | RPMI-8226 > 100 µM | SF-295 > 100 µM | K562 > 100 µM | DU-145 > 100 µM | SNB-75 > 100 µM | MDA-MB-435 > 100 µM | SW-620 > 100 µM | UO-31 > 100 µM | SK-MEL-28 > 100 µM | SNB-19 > 100 µM | U-251 > 100 µM | SN12C > 100 µM | Malme-3M > 100 µM | NCI/ADR-RES > 100 µM | HCT-116 > 100 µM | OVCAR-8 > 100 µM | LOX IMVI > 100 µM | SK-OV-3 > 100 µM | OVCAR-4 > 100 µM | NCI-H522 > 100 µM | UACC-257 > 100 µM | KM12 > 100 µM | BT-549 > 100 µM | NCI-H460 > 100 µM | SK-MEL-5 > 100 µM | 786-0 > 100 µM | MCF7 > 100 µM | CAKI-1 > 100 µM | SK-MEL-2 > 100 µM
> 100 µM: HCT-15
